The values that follow come from patent publication US5442064A, “Carboxylic acid derivatives, pharmaceutical compositions containing these compounds and processes for preparing them” (Dr. Karl Thomae GmbH, priority 1992, dated 1995).

One data set concerns the target human thrombocytes. Briefly: Competitive binding of ^3 H-BIBU 52/test substance to human thrombocytes. The conditions noted are these: human thrombocytes in plasma; ^3 H-BIBU 52 5 nM; ambient temperature, 20 minutes. Here is the method:
1. Competitive binding of ^3 H-BIBU 52/test substance to human thrombocytes: […] Case 5/1093-FL), which replaces the ^125 I fibrinogen ligand known from the literature and various concentrations of the substance to be tested. The free and bound ligand is separated by centrifuging and quantified by scintillation counting. The inhibition of ^3 H-BIBU 52 binding by the test substance is determined from the measurements obtained. In order to do this, donor blood is taken from an anticubital vein and anticoagulated with trisodium citrate (final concentration 13 mM). The blood is centrifuged for 10 minutes at 170×g and the supernatant platelet-rich plasma (PRP) is removed. The remaining blood is vigorously centrifuged once more in order to obtain plasma. The PRP is diluted 1:10 with autologous plasma. 750 μl are incubated with 50 μl of physiological saline solution, 100 μl of test substance solution, 50 μl of ^14 C-sucrose (3,700 Bq) and 50 μl of ^3 H-BIBU 52 (final concentration: 5 nM) at ambient temperature for 20 minutes. In order to measure the non-specific binding, 5μl of BIBU 52 (final concentration: 30 μM) are used instead of the test substance. The samples are centrifuged for 20 seconds at 10,000×g and the supernatant is poured off. 100 μl thereof are measured in order to determine the free ligand. The pellet is dissolved in 500 μl of 0.2N NaOH, 450 μl are mixed with 2 ml of scintillator and 25 μl of 5N HCl and measured. The residual plasma remaining in the pellet is determined from the ^14 C-content and the bound ligand is determined from the ^3 H-measurement. After the non-specific binding has been deducted, the pellet activity is plotted against the concentration of the test substance and the concentration for 50% inhibition of binding is determined. 2. Antithrombotic activity

The subject of a further data set is platelet aggregation. Briefly: Inhibition of platelet aggregation (collagen-induced, Born and Cross, platelet-rich plasma of healthy volunteers). It is filed as cell-based. Conditions: 10 minutes preincubation at 37° C. On the procedure:
In order to do this, donor blood is taken from an anticubital vein and anticoagulated with trisodium citrate (final concentration 13 mM). The blood is centrifuged for 10 minutes at 170×g and the supernatant platelet-rich plasma (PRP) is removed. The remaining blood is vigorously centrifuged once more in order to obtain plasma. The PRP is diluted 1:10 with autologous plasma. 750 μl are incubated with 50 μl of physiological saline solution, 100 μl of test substance solution, 50 μl of ^14 C-sucrose (3,700 Bq) and 50 μl of ^3 H-BIBU 52 (final concentration: 5 nM) at ambient temperature for 20 minutes. In order to measure the non-specific binding, 5μl of BIBU 52 (final concentration: 30 μM) are used instead of the test substance. The samples are centrifuged for 20 seconds at 10,000×g and the supernatant is poured off. 100 μl thereof are measured in order to determine the free ligand. The pellet is dissolved in 500 μl of 0.2N NaOH, 450 μl are mixed with 2 ml of scintillator and 25 μl of 5N HCl and measured. The residual plasma remaining in the pellet is determined from the ^14 C-content and the bound ligand is determined from the ^3 H-measurement. After the non-specific binding has been deducted, the pellet activity is plotted against the concentration of the test substance and the concentration for 50% inhibition of binding is determined. 2. Antithrombotic activity The thrombocyte aggregation is measured using the method of Born and Cross (J. Physiol. 170: 397 (1964)) in platelet-rich plasma taken from healthy volunteers. To inhibit coagulation the blood is mixed with 3.14% sodium citrate in a volume ratio of 1:10. The pattern of the decrease in optical density of the platelet suspension is photometrically measured and recorded after the addition of the aggregation-triggering substance. The rate of aggregation is determined from the angle of inclination of the density curve. The point on the curve where there is maximum light transmittance is used to calculate the optical density. The concentration of collagen used is as small as possible but sufficient to produce an irreversible reaction curve. Standard commercial collagen produced by Hormonchemie of Munich is used. Before the addition of the collagen the plasma is incubated for 10 minutes with the substance at 37° C. From the concentration/activity curve an EC50 is determined, which describes the concentration giving a 50% change in the optical density in terms of the inhibition of aggregation.

For data set [1], the system named is collagen-induced thrombocyte aggregation. Briefly: Collagen-induced thrombocyte aggregation ex vivo after oral administration, Rhesus monkeys. The conditions noted are these: 1 mg/kg, collagen 2 μg/ml. It is filed as in vivo. On the procedure: The inhibition of thrombocyte aggregation after oral administration of the test substance is determined ex vivo on Rhesus monkeys. Directly before the oral administration of the test substance suspended in Natrosol, a blood sample is taken from the cubital vein of the animals to provide a reference value. At specified times after the administration of the substance, fresh blood samples are taken and investigated as follows. The whole blood mixed with 3.14% sodium citrate in a ratio by volume of 1:10 is centrifuged at 200×g for 15 minutes. The supernatant, platelet-rich plasma, is carefully removed. From the sediment which is rich in erythrocytes, the platelet-poor plasma is obtained as supernatant,by centrifuging at 4000×g for 10 minutes. The thrombocyte aggregation triggered with collagen (Hormonchemie, Munich; 2 μg/ml final concentration in platelet-rich plasma) in these ex vivo samples is measured photometrically using the method of Born and Cross (J. Physiol. 170, 397 (1964)). The maximum light transmittance of the platelet-rich plasma, measured after collagen stimulation, is compared with the reference value in order to determine the inhibition of aggregation at the various times of blood sampling after the administration of the substance, relative to the reference value.

Another data set has as its system mice. Briefly: Tolerability after intravenous administration to mice. It is filed as in vivo. Conditions: 30 mg/kg, three mice in each case.

Where a name gives a salt, the structure may show the parent alone.

Usually IC50 stands for the concentration that inhibits the measured activity by half. A higher IC50 goes with a need for much substance. As a reminder, the EC50 is the concentration giving half of the maximal effect. Turning to `COC(=O)[C@H]1CC[C@H](NC(=O)C2CCN(c3ccc(C(=N)N)cc3)CC2)CC1.Cl` [Example 1(24), 1-(4-amidinophenyl)-4-[N-[trans-4-(methoxycarbonyl)-cyclohexyl]-aminocarbonyl]-piperidine-hydrochloride], at human thrombocytes, the 50% inhibitory concentration (IC50) was determined as 4400 nM. The compound further returned a concentration giving a half-maximal response (EC50) in the data set on platelet aggregation (Homo sapiens, Platelet) of 220 nM. In addition, the “inhibits the collagen-induced thrombocyte aggregation ex vivo (duration)” value in data set [1] was “more than 4 hours”.
`Cl.Cl.N=C(N)c1ccc(N2CCN(C(=O)N[C@H]3CC[C@H](C(=O)O)CC3)CC2)cc1.O` [Example 2, 1-(4-Amidinophenyl)-4-[N-[trans-4-carboxycyclohexyl]aminocarbonyl]-piperazine-dihydrochloride-hydrate] gave a concentration for half-maximal inhibition (IC50) at human thrombocytes of 7.4 nM. This compound also had an EC50 with platelet aggregation (Homo sapiens, Platelet) of 40 nM. Besides, in the data set on mice, the “tolerability (animals died)” value is listed as “no animals died”.
On the same counts, the results for `NCc1ccc(N2CCN(C(=O)N[C@H]3CC[C@H](C(=O)O)CC3)CC2)cc1` [Example 3, 1-(4-Aminomethylphenyl)-4-[N-(trans-4-carboxycyclohexyl)-aminocarbonyl]-piperazine] are 130 nM, 230 nM and “no animals died”.
On the same counts, the results for `CN(C(=O)N1CCN(c2ccc(C(=N)N)cn2)CC1)[C@H]1CC[C@H](C(=O)O)CC1.Cl.Cl` [2(8), 1-(5-amidinopyrid-2-yl)-4-[N-(trans-4-carboxycyclohexyl)-N-methyl-aminocarbonyl]-piperazine-dihydrochloride] are 27 nM, 60 nM and “no animals died”.
On the same counts, the results for `Cl.Cl.N=C(N)c1ccc(N2CCN(C(=O)N[C@H]3CC[C@H](C(=O)O)CC3)CC2)nc1` [2(7), 1-(5-amidinopyrid-2-yl)-4-[N-(trans-4-carboxycyclohexyl)-aminocarbonyl]-piperazine-dihydrochloride] are 29 nM, 80 nM and “no animals died”.
In the case of `COC(=O)N=C(N)c1ccc(N2CCN(C(=O)N[C@H]3CC[C@H](C(=O)OC)CC3)CC2)cc1` [Example 5, 1-[4-(N-Methoxycarbonyl-amidinc)-phenyl]-4-[N-[trans-4-(methoxycarbonyl)-cyclohexyl]-aminocarbonyl]-piperazine], the “tolerability (animals died)” value in the data set on mice is reported as “no animals died”.
In turn, `COC(=O)[C@H]1CC[C@H](N(C)C(=O)N2CCN(c3ccc(C(=N)N)cn3)CC2)CC1` [1(9), 1-(5-amidinopyrid-2-yl)-4-[N-[trans-4-(methoxycarbonyl)-cyclohexyl]-N-methyl-aminocarbonyl]-piperazine-hydrochloride] came in with an IC50 on human thrombocytes of 17000 nM. The compound also had a half-maximal effective concentration (EC50) in the data set with platelet aggregation (Homo sapiens, Platelet) of 90 nM.
`N=C(N)c1ccc(C2CCN(C(=O)N[C@H]3CC[C@H](C(=O)O)CC3)CC2)cc1` [2(3), 4-(4-amidinophenyl)-1-[N-(trans-4-carboxycyclohexyl)-aminocarbonyl]-piperidine-hydrochloride] came in with an IC50 on human thrombocytes of 4.5 nM. The compound further registered a 50% effective concentration (EC50) in the data set on platelet aggregation (human platelet-rich plasma) of 30 nM.
As to `NCc1ccc(C2CCN(C(=O)N[C@H]3CC[C@H](C(=O)O)CC3)CC2)cc1` [2(11), 4-(4-aminomethylphenyl)-1-[N-(trans-4-carboxycyclohexyl)-aminocarbonyl]-piperidine-hydrochloride], on human thrombocytes, the IC50 stood at 230 nM. Further, the EC50 in the data set with platelet aggregation (Homo sapiens, Platelet) was 380 nM.
The matching figures for `CC(C)OC(=O)[C@H]1CC[C@H](NC(=O)N2CCN(c3ccc(C(=N)N)cc3)CC2)CC1` [Example 7, 1-(4-Amidinophenyl)-4-[N-[trans-4-(isopropoxycarbonyl)-cyclohexyl]-aminocarbonyl]-piperazine-dihydrochloride]: 1200 nM and 280 nM.
